Experimental data from patent US20060004002A1 (priority 2004, published 2006).

Target: T1, Recombinant human Src (Homo sapiens, UniProt P12931)
T1 construct: made in house; host or cells: baculovirus-insect cell system
Test: Src tyrosine kinase activity assay with poly E4Y and 32P-ATP
Type: biochemical
Settings: poly E4Y, 32P-ATP; NI = no inhibition; read-out: IC50 Value Src
Protocol: Recombinant human Src was expressed using the baculovirus-insect cell system and purified as published (Budde et al., 1993 and 2000). Recombinant Csk and the FGF receptor (FGFr) were expressed as […] fusion proteins using the pGEX expression vector and E. coli, and purified as described (Sun & Budde, 1995).
The tyrosine kinase activity of Src, Csk and FGFr was determined using poly E4Y and ^32P-ATP. Briefly, enzymes were assayed in a reaction mixture […] consisting of 0.15 M EPPS-NaOH (pH 8.0) with 6 mM MgCl2, 0.2 mM γ^32P-ATP (0.2-0.4 mCi/μmol), 10% glycerol, 0.1% Triton X-100, and poly E4Y. Poly E4Y is a synthetic peptide whose phosphorylation is measured in this assay by the addition of the radioactively labeled phosphate from the ATP (Budde et al., 1995). […] When ATP was varied (0, 50, 100 and 250 μM), poly E4Y was kept constant at 150 μg/ml.

T1 sequence (P12931 whole entry): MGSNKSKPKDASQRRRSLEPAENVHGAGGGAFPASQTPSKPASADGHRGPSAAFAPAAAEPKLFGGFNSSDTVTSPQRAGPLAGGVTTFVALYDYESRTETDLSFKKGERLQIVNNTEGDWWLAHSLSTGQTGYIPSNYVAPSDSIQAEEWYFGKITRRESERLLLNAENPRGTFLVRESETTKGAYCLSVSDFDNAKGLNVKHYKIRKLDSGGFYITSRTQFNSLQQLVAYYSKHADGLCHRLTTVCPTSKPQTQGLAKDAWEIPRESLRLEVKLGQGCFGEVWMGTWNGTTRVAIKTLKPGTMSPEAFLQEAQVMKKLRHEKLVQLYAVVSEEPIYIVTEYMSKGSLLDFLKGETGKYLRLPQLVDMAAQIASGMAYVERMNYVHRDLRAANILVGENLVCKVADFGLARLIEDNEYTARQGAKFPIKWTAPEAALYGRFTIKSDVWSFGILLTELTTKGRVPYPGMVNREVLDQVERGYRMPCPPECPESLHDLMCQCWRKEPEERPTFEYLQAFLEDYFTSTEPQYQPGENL

Row | SMILES | IC50
1 | Cc1c(-c2ccc(C(N)=O)cc2)sc2c(NN=Cc3cccs3)ncnc12 [Compound 25, 2-Thiophenecarboxaldehyde (6-(4-aminocarbonylphenyl)-7-methylthieno[3,2-d]pyrimidin-4-yl)hydrazone] | 26 nM
2 | COc1ccc(C=NNc2ncnc3c(C)c(-c4cccc(C#N)c4)sc23)cc1O [Compound 27, 3-Hydroxy-4-methoxybenzaldehyde (6-(3-cyanophenyl)-7-methylthieno[3,2-d]pyrimidin-4-yl)hydrazone] | 58 nM
3 | Cc1c(-c2ccc(CN)cc2)sc2c(NN=Cc3cccnc3)ncnc12 [Compound 3, 3-Pyridinecarboxaldehyde (6-(4-aminomethyl)phenyl-7-methylthieno[3,2-d]pyrimidin-4-yl)hydrazone] | 24 nM
4 | Cc1c(CN2CCOCC2)sc2c(NN=Cc3cccnc3)ncnc12 [Compound 15, 3-Pyridinecarboxaldehyde (7-methyl-6-(morpholin-4-yl)methyllthieno[3,2-d]pyrimidin-4-yl)hydrazone] | 320 nM
5 | CCOc1ccccc1-c1sc2c(NN=Cc3sccc3C)ncnc2c1C#N [compound 122] | 5.2 nM
6 | Cc1c(-c2cccc(C#N)c2)sc2c(NN=Cc3cccnc3)ncnc12 [Compound 29, 3-Pyridinecarboxaldehyde (6-(3-cyanophenyl)-7-methylthieno[3,2-d]pyrimidin-4-yl)hydrazone] | 27 nM
7 | CCOc1ccccc1-c1sc2c(NN=Cc3ncc[nH]3)ncnc2c1O [Compound 97, 2-Imidazolecarboxaldehyde (6-(2-ethoxyphenyl)-7-hydroxythieno[3,2-d]pyrimidin-4-yl)hydrazone] | 55 nM
8 | Cc1c(-c2cccc(C#N)c2)sc2c(NN=Cc3ccc(C(=O)O)cc3)ncnc12 [Compound 30, 4-Carboxybenzaldehyde (6-(3-cyanophenyl)-7-methylthieno[3,2-d]pyrimidin-4-yl)hydrazone] | 160 nM
9 | CCOc1ccccc1-c1sc2c(NN=Cc3ccc(OC)cc3OC)ncnc2c1C [Compound 79, 2,4-Dimethoxybenzaldehyde (6-(2-ethoxyphenyl)-7-methylthieno[3,2-d]pyrimidin-4-yl)hydrazone] | 250 nM
10 | Cc1c(-c2cccc(C(=N)N)c2)sc2c(NN=Cc3cccnc3)ncnc12 [Compound 32] | 41 nM
11 | CCOc1ccccc1-c1sc2c(NN=Cc3ccc(OC)c(O)c3)ncnc2c1CC [compound 35] | 14 nM
12 | COc1ccc(C=NNc2ncnc3c(C)c(-c4ccc(CN)cc4)sc23)cc1O [Compound 5, 3-Hydroxy-4-methoxybenzaldehyde (6-(4-aminomethyl)phenyl-7-methylthieno[3,2-d]pyrimidin-4-yl)hydrazone] | 32 nM
13 | COc1ccc(C=NNc2ncnc3c(C)c(-c4ccccc4CN)sc23)cc1O [Compound 7, 3-Hydroxy-4-methoxybenzaldehyde (6-(2-aminomethyl)phenyl-7-methylthieno[3,2-d]pyrimidin-4-yl)hydrazone] | 120 nM
14 | CCOc1cc(F)ccc1-c1sc2c(NN=Cc3ccc(OC)c(O)c3)ncnc2c1O [Compound 61, 3-Hydroxy-4-methoxybenzaldehyde (6-(2-ethoxy-4-fluorophenyl)-7-hydroxythieno[3,2-d]pyrimidin-4-yl)hydrazone] | 6 nM
15 | CCOc1ccccc1-c1sc2c(NN=Cc3c[nH]c(=O)[nH]c3=O)ncnc2c1C#N [compound 111] | 12 nM
16 | CCOc1ccccc1-c1sc2c(NN=Cc3cccnc3)ncnc2c1CO [Compound 70, 3-Pyridinecarboxaldehyde (6-(2-ethoxyphenyl)-7-hydroxymethylthieno[3,2-d]pyrimidin-4-yl)hydrazone] | 20 nM
17 | CCOc1ccccc1-c1sc2c(NN=Cc3ccc(C(=O)O)cc3)ncnc2c1CO [Compound 72, 4-Carboxybenzaldehyde (6-(2-ethoxyphenyl)-7-hydroxymethylthieno[3,2-d]pyrimidin-4-yl)hydrazone] | 32 nM
18 | CCOc1ccccc1-c1sc2c(NN=Cc3ccc(OC)c(OCCN(CC)CC)c3)ncnc2c1C (single isomer, unassigned) [Compound 158] | 0.015 nM
19 | CCOc1ccccc1-c1sc2c(NN=Cc3ccc(OC)c(O)c3)ncnc2c1OC [Compound 40, 3-Hydroxy-4-methoxybenzaldehyde (6-(2-ethoxyphenyl)-7-methoxythieno[3,2-d]pyrimidin-4-yl)hydrazone] | 22 nM
20 | CCOc1ccccc1-c1sc2c(NN=Cc3ccc(OC)c(O)c3)ncnc2c1OCCN1CCOCC1 [Compound 41, 3-Hydroxy-4-methoxybenzaldehyde (6-(2-ethoxyphenyl)-7-(2-(morpholin-4-yl)-ethoxy)thieno[3,2-d]pyrimidin-4-yl)hydrazone] | 340 nM
21 | Cc1c(-c2ccc(O)cc2)sc2c(NN=Cc3ccc(C(=O)O)cc3)ncnc12 [Compound 76, 4-Carboxybenzaldehyde (6-(4-hydroxyphenyl)-7-methylthieno[3,2-d]pyrimidin-4-yl]hydrazone] | 41 nM
22 | CCOc1ccccc1-c1sc2c(NN=Cc3ccc(F)c(Cl)c3)ncnc2c1O [Compound 125, 3-Chloro-4-fluorobenzaldehyde (6-(2-ethoxyphenyl)-7-hydroxythieno[3,2-d]pyrimidin-4-yl)hydrazone] | 45 nM
23 | Cc1c(-c2ccc(O)cc2)sc2c(NN=Cc3cccnc3)ncnc12 [Compound 75, 3-Pyridinecarboxaldehyde (6-(4-hydroxyphenyl)-7-methylthieno[3,2-d]pyrimidin-4-yl]hydrazone] | 21 nM
24 | CCNc1ccc(-c2sc3c(NN=Cc4ccc(OC)c(O)c4)ncnc3c2C)cc1 [Compound 48, 3-Hydroxy-4-methoxybenzaldehyde (6-(4-N-ethylaminophenyl)-7-methylthieno[3,2-d]pyrimidin-4-yl)hydrazone] | 64 nM
25 | COc1ccc(C=NNc2ncnc3c(C)c(-c4ccccc4N)sc23)cc1O [Compound 13, 3-Hydroxy-4-methoxybenzaldehyde (6-(2-aminophenyl)-7-methylthieno[3,2-d]pyrimidin-4-yl)hydrazone] | 38 nM
26 | C=CCOc1ccccc1-c1sc2c(NN=Cc3ccc(OC)c(O)c3)ncnc2c1C [Compound 80, 3-Hydroxy-4-methoxybenzaldehyde (6-(2-allyloxyphenyl)-7-methylthieno[3,2-d]pyrimidin-4-yl)hydrazone] | 6.5 nM
27 | Cc1c(-c2ccc(C(N)=O)cc2)sc2c(NN=Cc3ccc(C(=O)O)cc3)ncnc12 [Compound 26, 4-Carboxybenzaldehyde (6-(4-aminocarbonylphenyl)-7-methylthieno[3,2-d]pyrimidin-4-yl)hydrazone] | 36 nM
28 | CCOc1ccccc1-c1sc2c(NN=Cc3ncc[nH]3)ncnc2c1C#N [compound 95] | 25 nM
29 | CCOc1ccccc1-c1sc2c(NN=Cc3nccn3C)ncnc2c1C#N [compound 138] | 18 nM

Second part, the compound after the results:

Row | IC50 | SMILES
30 | 1.3 nM | CCOc1ccccc1-c1sc2c(NN=Cc3cc(OC)c(OC)c(OC)c3)ncnc2c1C [Compound 63, 3,4,5-Trimethoxybenzaldehyde (6-(2-ethoxyphenyl)-7-methylthieno[3,2-d]pyrimidin-4-yl)hydrazone]
31 | 1.2 nM | COc1ccc(C=NNc2ncnc3c(C)c(-c4cccc(N)c4)sc23)cc1O [Compound 12, 3-Hydroxy-4-methoxybenzaldehyde (6-(3-aminophenyl)-7-methylthieno[3,2-d]pyrimidin-4-yl)hydrazone]
32 | 1.5 nM | CCOc1ccccc1-c1sc2c(NN=Cc3ccc(OC)c(O)c3)ncnc2c1C#N [compound 47]
33 | 4.6 nM | CCOc1ccccc1-c1sc2c(NN=Cc3ccc(OC)c(OC)c3)ncnc2c1C [Compound 53, 3,4-Dimethoxybenzaldehyde (6-(2-ethoxyphenyl)-7-methylthieno[3,2-d]pyrimidin-4-yl)hydrazone]
34 | 3 nM | CCOc1ccccc1-c1sc2c(NN=Cc3ccoc3)ncnc2c1C#N [compound 127]
35 | 1.1 nM | CCOc1cc(F)ccc1-c1sc2c(NN=Cc3cccs3)ncnc2c1O [Compound 109, 2-Thiophenecarboxaldehyde (6-(2-ethoxy-4-fluorophenyl)-7-hydroxythieno[3,2-d]pyrimidin-4-yl)hydrazone]
36 | 1.8 nM | CCOc1ccccc1-c1sc2c(NN=Cc3ccc(NC(C)=O)cc3)ncnc2c1C#N [compound 130]
37 | 2.6 nM | CCOc1ccccc1-c1sc2c(NN=Cc3ccc(C)o3)ncnc2c1C#N [compound 134]
38 | 4 nM | CCOc1ccccc1-c1sc2c(NN=Cc3ccc(F)cc3)ncnc2c1C#N [compound 135]
39 | 1 nM | CCOc1ccccc1-c1sc2c(NN=Cc3cc(O)c(OC)c(OC)c3)ncnc2c1C#N [compound 98]
40 | 0.84 nM | CCOc1ccccc1-c1sc2c(NN=Cc3ccccc3F)ncnc2c1C [Compound 78, 2-Fluorobenzaldehyde (6-(2-ethoxyphenyl)-7-methylthieno[3,2-d]pyrimidin-4-yl)hydrazone]
41 | 4.7 nM | CCOc1ccccc1-c1sc2c(NN=Cc3ccco3)ncnc2c1C#N [compound 119]
42 | 1.4 nM | CCOc1ccccc1-c1sc2c(NN=Cc3ccc(O)c(OC)c3)ncnc2c1C#N [compound 86]
43 | 1.2 nM | CCOc1ccccc1-c1sc2c(NN=Cc3cccnc3)ncnc2c1C#N [compound 67]
44 | 3 nM | CCOc1ccccc1-c1sc2c(NN=Cc3cccnc3)ncnc2c1O [Compound 73, 3-Pyridinecarboxaldehyde (6-(2-ethoxyphenyl)-7-hydroxythieno[3,2-d]pyrimidin-4-yl)hydrazone]
45 | 2.1 nM | CCOc1ccccc1-c1sc2c(NN=Cc3ccc(O)c(Cl)c3)ncnc2c1C#N [compound 90]
46 | 1.5 nM | CCOc1ccccc1-c1sc2c(NN=Cc3ccc(O)cc3)ncnc2c1C#N [compound 102]
